“And” between values parts separate entries of the source, which are not always exact repeats. Identical values can stand only once.
Assays:
CFBE41o- cells = test: Short-circuit current in CFBE41o- cells (Test Example 2); assay type: cell-based, Human; settings: 1 μM, 1% DMSO
Experimental: 16HBE14o- cells, a Human airway cell line derived from a healthy individual, which contain ClC-2 and the Cystic Fibrosis Transmembrane Regulator, Cl channel (CFTR); and CFBE41o- cells, a Human airway cell line derived from cystic fibrosis patients, which contain functional form of ClC-2 and defective form of CFTR (ΔF508 CFTR) were used. Both cells were cultured in MEM supplemented with 10% FBS (Hyclone), […] 1-glutamine and penicillin/streptomycin in flasks coated with fibronectin/collagen/BSA. When desired, the cells were plated on 0.3 cm^2 collagen-coated permeable filters (Biocoat). After 24 hrs, the apical medium was removed so that the cells were grown in air-water interface. While they were grown in air-water interface, the basolateral side of the cells was fed with the medium and the medium was changed every other day. The cells were allowed to grow to confluence.
Short-circuit current measurements were used to evaluate Cl transport in polarized, confluent cultures of the cells grown in air-water interface. A plexiglass chamber for short-circuit current measurements in confluent cell monolayers grown on the 0.3 cm^2 permeable support filters was used (World Precision Instruments, Sarasota, Fla.). Electrical measurements were made with a 7402C voltage clamp device (Bioengineering Department, Iowa University). […]

T84 cells = test: Short-circuit current in T84 cells (Test Example 5); assay type: cell-based, human; settings: 50 nM
Experimental: T84 cells, a human intestinal cell line, derived form confluent monolayers with tight junctions were used. Said cell line has been widely used in studies of Cl^− transport using short-circuit current (Isc). These cells contain both CFTR and ClC-2.
T84 human intestinal epithelial cells were grown to confluence at pH 7.4 in 162-cm^2 flasks (Corning Costar, Mass.) with a 1:1 mixture of Dulbecco's modified Eagle's medium and Ham's F-12 nutrient mixture supplemented with 6% fetal bovine serum (FBS), 15 mM HEPES, 14.3 mM NaHCO^3, and antibiotics/antimycotic. Flasks were passaged weekly and fed every 3 days. Cell monolayers for experiments were grown to confluence on collagen-coated permeable support (Biocoat). Monolayers were fed every 3 days and used after stable transepithelia resistance was achieved, c.a. 7-14 days post-plating.
According to the same manner as described in Example 2, Short-circuit current measurements in T84 cells were carried out. Changes in short-circuit current (ΔIsc) were normalized to filter area (0.3 cm^2) and reported as ΔIsc/cm^2.
Compound 1 was used at a final concentration of 50 nM.

[1] = system: Chloride Ion Transport into Intestinal Fluid; test: Chloride ion transport into intestinal fluid of rats (Test Example 6); assay type: in vivo, male Wistar rats; settings: for Chloride Ion Concentration in Intestinal Fluid, Mean ± S.E.: 30 minutes after administration
Experimental: Compound 1 (13,14-dihydro-15-keto-16,16-difluoro-prostaglandin E1) of 1, 10 or 100 μg/kg in the volume of 5 mL/kg was orally administered to male Wistar rats (six weeks old, weight:180-210 g) that had been fasted for at least 16 hours. The control group received the same volume of vehicle (distilled water containing 0.5% ethanol and 0.01% polysorbate 80). Thirty minutes after the administration, the animals were subjected to laparotomy under ether anesthesia. The top portion of the duodenum and the end portion of the ileum were ligated respectively, and the bowel was extirpated. The intestinal fluid of each animal was collected and centrifuged by 10,000×g for 5 minutes. Supernatant was collected, and the concentration of chloride ion in the supernatant of intestinal fluid was measured with a chloride counter (CL-7, Hiranuma Sangyo Co., Ltd.). Dunnett's test was used in the comparison of the control group and the groups receiving Compound 1 in each dose. P values less than 0.05 were considered to be statistically significant.

[2] = system: Chloride Ion Transport into Lacrimal Fluid; test: Chloride ion transport into lacrimal fluid in rabbits (Test Example 8); assay type: in vivo, male white rabbits
Experimental: Physiological saline, eye drops vehicle, or eye drops containing 0.0001% or 0.001% of Compound 1 was instilled to male white rabbits in the volume of 30 μL/eye. […] The collected lacrimal fluid was diluted five fold with distilled water, and the concentration of chloride ions was measured with a chloride counter (CL-7, Hiranuma Sangyo Co. Ltd.). Student's t-test and Wilcoxon's test were used in the comparison of the control group and the groups receiving Compound 1 in each dose. P values less than 0.05 were considered to be statistically significant.

[3] = system: Chloride Ion Transport into Bile; test: Chloride ion transport into bile in rats (Test Example 7); assay type: in vivo, male Wistar rats
Experimental: Compound 2 (13,14-dihydro-15-keto-16,16- difluoro-18(S)-methyl-prostaglandin E1) of 100 μg/kg was orally administered to male Wistar rats (six weeks old, weight:180-210 g) three times a day for seven days. The control group (n=7) received the same volume of vehicle (distilled water containing 0.01% polysorbate 80 and 0.5% ethanol). In the following morning of the final administration day (about 17 hours after the final administration), a polyethylene catheter (PE10, Becton Dickinson and Company) was inserted in the rats' choledoch under ether anesthesia. The rats were placed into Borrmann's cages and were left for 1 hour to awake from anesthesia. Bile discharged in one hour, from one to two hours after the insertion of the catheter, was collected and the concentration of chloride ion in the bile was measured with a chloride counter (CL-7, Hiranuma Sangyo Co., Ltd.). Student's t-test was used in the comparison of the control group and the group receiving Compound 2. P values less than 0.05 were considered to be statistically significant.

Compound	Short-Circuit Current (change) (CFBE41o- cells)	Effect on Cl− transport in T84 cells (in words) (T84 cells)	Changes in short-circuit currents (Δlsc) (T84 cells; T84 cells) [μA/cm^2]	Chloride Ion Concentration in Intestinal Fluid, Mean ± S.E. ([1]; 1 μg/kg P.O.) [mEq/L]	Chloride Ion Concentration in Intestinal Fluid, Mean ± S.E. ([1]; 10 μg/kg P.O.) [mEq/L]	Chloride Ion Concentration in Intestinal Fluid, Mean ± S.E. ([1]; 100 μg/kg P.O.) [mEq/L]	Effect on concentration of chloride ions in the bowel (in words) ([1]; 1, 10 and 100 μg/kg P.O.)	Effect on concentration of chloride ions in the lacrimal fluid (in words) ([2]; 0.0001% and 0.001% eye drops, compared with control group)	Chloride Ion Concentration in lacrimal fluid, Mean ± S.E. ([2]; 0.0001% eye drops, 30 μL/eye, Pre (0 hour)) [mEq/L]	Chloride Ion Concentration in lacrimal fluid, Mean ± S.E. ([2]; 0.0001% eye drops, 2 hr after instillation) [mEq/L]	Chloride Ion Concentration in lacrimal fluid, Mean ± S.E. ([2]; 0.0001% eye drops, 4 hr after instillation) [mEq/L]	Chloride Ion Concentration in lacrimal fluid, Mean ± S.E. ([2]; 0.0001% eye drops, 6 hr after instillation) [mEq/L]	Chloride Ion Concentration in lacrimal fluid, Mean ± S.E. ([2]; 0.0001% eye drops, 8 hr after instillation) [mEq/L]	Chloride Ion Concentration in lacrimal fluid, Mean ± S.E. ([2]; 0.001% eye drops, 30 μL/eye, Pre (0 hour)) [mEq/L]	Chloride Ion Concentration in lacrimal fluid, Mean ± S.E. ([2]; 0.001% eye drops, 2 hr after instillation)	Chloride Ion Concentration in lacrimal fluid, Mean ± S.E. ([2]; 0.001% eye drops, 4 hr after instillation) [mEq/L]	Chloride Ion Concentration in lacrimal fluid, Mean ± S.E. ([2]; 0.001% eye drops, 6 hr after instillation) [mEq/L]	Chloride Ion Concentration in lacrimal fluid, Mean ± S.E. ([2]; 0.001% eye drops, 8 hr after instillation) [mEq/L]	Effect on concentration of chloride ions in the bile (in words) ([3]; 100 μg/kg P.O. t.i.d. 7 days, compared with control group)	Chloride Ion Concentration in Bile, Mean ± S.E. ([3]; 100 μg/kg P.O., t.i.d. for 7 days, about 17 hours after final administration) [mEq/L]
CCCCC(F)(F)[C@@]1(O)CC[C@H]2[C@@H](CC(=O)[C@@H]2CCCCCCC(=O)O)O1 [Compound 1, (−)-7-[(2R,4aR,5R,7aR)-2-(1,1-difluoropentyl)-2-hydroxy-6-oxoperhydrocyclopenta[b]pyran-5-yl]heptanoic acid]	5.0±0.04 μA/cm^2 and 5.0 ± 0.4 μA/cm^2	activated Cl^− transport	56.5	82.2 ± 7.0	110.1 ± 5.6	126.6 ± 2.4	increased the concentration of chloride ions in the bowel in a dose-dependant manner	increased the concentration of chloride ions in the lacrimal fluid in a dose-dependant manner	136.7 ± 3.6	123.4 ± 5.2	136.8 ± 2.3	136.8 ± 2.0	140.8 ± 2.8	135.4 ± 4.0	152.9 ± 7.7^[##] mEq/L	151.4 ± 2.9	138.9 ± 3.3	138.8 ± 1.6		
CC[C@H](C)CC(F)(F)C(=O)CC[C@H]1[C@H](O)CC(=O)[C@@H]1CCCCCCC(=O)O [Compound 2, 13,14-dihydro-15-keto-16,16-difluoro-18(S)-Methyl-PGE1]																			increased significantly	98.4 ± 1.8
